Measurements published in patent US9572890B2, “Oral formulations of mitochondrially-targeted antioxidants and their preparation and use” (MITOTECH SA, priority 2011, dated 2017).

Experiments:
[1] = Storage stability of reduced SkQ1H2 formulations (Example 9); assay type: physicochemical
Procedure: The sample also can be stabilized by being dissolved in any deoxygenated anhydrous and aprotic solvents.
The stability of SkQ1H2 in the prepared composition was investigated by storage at 4° C. in darkness (Table 12).
The stability of SkQ1H2 in the prepared composition was investigated by storage at 60° C. in darkness (Table 13).
The yield of SkQ1H2 was 2 g (approx 100% yield) in the form of light powder. The stability results are shown below (Table 14 and Table 15).
The stability of SkQ1H2 in the prepared composition was investigated by storage at 60° C. in darkness (Table 16).
The stability of SkQ1H2 in the compositions prepared by both methods was investigated by storage at 60° C. and 4° C. in darkness (Table 17).
The stability of SkQ1H2 in compositions prepared by Methods 3 and 4 was investigated by storage at 60° C. in darkness (Table 18).
The stability of SkQ1H2 in compositions prepared by both methods was investigated by storage at 60° C. in darkness (Table 18).
The stability of SkQ1H2 in the prepared solution was investigated by storage at RT in darkness (Table 19).
The stability of SkQ1H2 in the prepared solution was investigated by storage at 60° C. in darkness (Table 20).

[2] = Stability of MTAs in liquid solvents (degradation rate); assay type: physicochemical; settings: 400 mkM in 50% Glycerol
Procedure: Liquid solvents were also tested for their ability to stabilize representative MTAs SkQ1 and SkQR1. The solvents tested were water solutions of glycerol (10% to 100%), 50% lactulose, and 1,2-propylene glycol (10% to 100%, at 60° C.). Some representative results are shown below (Table 1).

[3] = SkQ1H2 in 55% EtOH in water, 0 h
[4] = SkQ1H2 in 55% EtOH in water, 0.5 h
[5] = SkQ1H2 in 55% EtOH in water, 1.48 h
[6] = SkQ1H2 in 55% EtOH in water, 2.8 h
[7] = SkQ1H2 in 55% EtOH in water, 3.44 h
[8] = SkQ1H2 in 55% EtOH in water, 4.37 h
[9] = SkQ1H2 in 55% EtOH in water, 23.23 h
[10] = SkQ1H2 in 55% EtOH in water, 143.45 h (~6 days)
[11] = SkQ1H2 in CH2Cl2, 143.45 h (~6 days)
[12] = SkQ1H2 powder, Storage at 60° C., day 0
[13] = SkQ1H2 powder, Storage at 60° C., day 5
[14] = SkQ1H2 powder, Storage at 60° C., day 7
[15] = SkQ1H2 powder, Storage at 60° C., day 11
[16] = SkQ1H2 powder, Storage at 60° C., day 17
[17] = SkQ1H2 powder, Storage at 60° C., day 28
[18] = SkQ1H2 powder, Storage at RT, day 0
[19] = SkQ1H2 powder, Storage at RT, day 3
[20] = SkQ1H2 powder, Storage at RT, day 5
[21] = SkQ1H2 powder, Storage at RT, day 7
[22] = SkQ1H2 powder, Storage at RT, day 11
[23] = SkQ1H2 powder, Storage at RT, day 17
[24] = SkQ1H2 powder, Storage at RT, day 28
[25] = SkQ1H2 with ascorbic acid (5 eq) and sorbite (30 wt parts), solid, time not given
[26] = SkQ1H2 with ascorbic acid (5 eq) and sorbite in 30% 1,2-propylene glycol, 60° C. in darkness, day 0
[27] = SkQ1H2 with ascorbic acid (5 eq) and sorbite in 30% 1,2-propylene glycol, 60° C. in darkness, day 3
[28] = SkQ1H2 with ascorbic acid (5 eq) and sorbite in 30% 1,2-propylene glycol, 60° C. in darkness, day 14
[29] = SkQ1H2 with ascorbic acid (5 eq) and sorbite in 30% 1,2-propylene glycol, 60° C. in darkness, day 27
[30] = SkQ1H2 with ascorbic acid (10 eq) in 55% EtOH, RT in darkness, 0 h
[31] = SkQ1H2 with ascorbic acid (10 eq) in 55% EtOH, RT in darkness, 1.5 h
[32] = SkQ1H2 with ascorbic acid (10 eq) in 55% EtOH, RT in darkness, 68 h (~3 days)
[33] = SkQ1H2 with ascorbic acid (10 eq) in 55% EtOH, RT in darkness, 118 h (~5 days)
[34] = SkQ1H2 with ascorbic acid (10 eq) in 55% EtOH, RT in darkness, 165 h (~7 days)
[35] = SkQ1H2 with sorbite (30 wt parts), solid, 60° C. in darkness, day 0
[36] = SkQ1H2 with sorbite (30 wt parts), solid, 60° C. in darkness, day 4
[37] = SkQ1H2 with sorbite (30 wt parts), solid, 60° C. in darkness, day 7
[38] = SkQ1H2 with sorbite (30 wt parts), solid, 60° C. in darkness, day 11
[39] = SkQ1H2 with sorbite (30 wt parts), solid, 60° C. in darkness, day 15
[40] = SkQ1H2 with sorbite (30 wt parts), solid, 60° C. in darkness, day 28

## Cc1c(O)cc(CCCCCCCCCC[P+](c2ccccc2)(c2ccccc2)c2ccccc2)c(O)c1C [SkQ1H2]
[1]; 1 month at RT or several months at 4° C. in darkness under inert atmosphere without humidity access
  stability of isolated SkQ1H2 light powder: excellent stability
[1]; [3]
  SkQ1, %: 2.21%
  SkQ1H2, %: 97.79%
[1]; [4]
  SkQ1, %: 9.21%
  SkQ1H2, %: 90.79%
[1]; [5]
  SkQ1, %: 14.76%
  SkQ1H2, %: 85.24%
[1]; [6]
  SkQ1, %: 32.57%
  SkQ1H2, %: 67.43%
[1]; [7]
  SkQ1, %: 47.83%
  SkQ1H2, %: 52.17%
[1]; [8]
  SkQ1, %: 56.57%
  SkQ1H2, %: 43.43%
[1]; [9]
  SkQ1, %: 82.39%
  SkQ1H2, %: 16.55%
[1]; [10]
  SkQ1, %: 77.23%
  SkQ1H2, %: 9.63%
[1]; SkQ1H2 in CH2Cl2, 0 h
  SkQ1, %: 2.21%
  SkQ1H2, %: 97.79%
[1]; SkQ1H2 in CH2Cl2, 0.5 h
  SkQ1, %: 4.01%
  SkQ1H2, %: 95.99%
[1]; SkQ1H2 in CH2Cl2, 1.48 h
  SkQ1, %: 5.68%
  SkQ1H2, %: 94.32%
[1]; SkQ1H2 in CH2Cl2, 2.8 h
  SkQ1, %: 6.42%
  SkQ1H2, %: 93.58%
[1]; SkQ1H2 in CH2Cl2, 3.44 h
  SkQ1, %: 5.57%
  SkQ1H2, %: 94.43%
[1]; SkQ1H2 in CH2Cl2, 4.37 h
  SkQ1, %: 7.18%
  SkQ1H2, %: 92.82%
[1]; SkQ1H2 in CH2Cl2, 23.23 h
  SkQ1, %: 9.30%
  SkQ1H2, %: 89.61%
[1]; [11]
  SkQ1, %: 16.53%
  SkQ1H2, %: 82.11%
[1]; [12]
  SkQ1, %: 0.75%
  SkQ1H2, %: 99.2%
[1]; [13]
  SkQ1, %: 0.55%
  SkQ1H2, %: 99.45%
[1]; [14]
  SkQ1, %: 0%
  SkQ1H2, %: 100%
[1]; [15]
  SkQ1, %: 0.19%
  SkQ1H2, %: 99.76%
[1]; [16]
  SkQ1, %: 1.24%
  SkQ1H2, %: 98.61%
[1]; [17]
  SkQ1, %: 11.04%
  SkQ1H2, %: 88.7%
[1]; [18]
  SkQ1, %: 1.01%
  SkQ1H2, %: 98.99%
[1]; [19]
  SkQ1, %: 0.66%
  SkQ1H2, %: 99.34%
[1]; [20]
  SkQ1, %: 0.63%
  SkQ1H2, %: 99.37%
[1]; [21]
  SkQ1, %: 0.71%
  SkQ1H2, %: 99.14%
[1]; [22]
  SkQ1, %: 0.83%
  SkQ1H2, %: 99.12%
[1]; [23]
  SkQ1, %: 0.28%
  SkQ1H2, %: 99.49%
[1]; [24]
  SkQ1, %: 0.50%
  SkQ1H2, %: 99.45%
[1]; SkQ1H2 with ascorbic acid (5 eq) and sorbite (30 wt parts), solid, 1 year at 4° C. in darkness
  number of impurities with content >0.5%: 0
[1]; SkQ1H2 with ascorbic acid (5 eq) and sorbite (30 wt parts), solid, 20 days at 60° C. in darkness
  number of impurities with content >0.5%: 0
[1]; [25]
  SkQ1, %: 1.209%
  SkQH2, %: 97.753%
[1]; [26]
  SkQ1, %: 0.18%
  SkQH2, %: 99.82%
[1]; [27]
  SkQ1, %: 1.03%
  SkQH2, %: 98.67%
[1]; [28]
  SkQ1, %: 28.34%
  SkQH2, %: 69.51%
[1]; [29]
  SkQ1, %: 51.9%
  SkQH2, %: 3.2%
[1]; [30]
  SkQ1, %: 0.27%
  SkQ1H2, %: 99.73%
[1]; [31]
  SkQ1, %: 0.93%
  SkQ1H2, %: 99.07%
[1]; [32]
  SkQ1, %: 0.59%
  SkQ1H2, %: 99.05%
[1]; [33]
  SkQ1, %: 0.31%
  SkQ1H2, %: 99.69%
[1]; [34]
  SkQ1, %: 0.26%
  SkQ1H2, %: 99.74%
[1]; [35]
  SkQ1, %: 0.61%
  SkQ1H2, %: 99.01%
[1]; [36]
  SkQ1, %: 8.7%
  SkQ1H2, %: 90.8%
[1]; [37]
  SkQ1, %: 9.4%
  SkQ1H2, %: 90.2%
[1]; [38]
  SkQ1, %: 10.7%
  SkQ1H2, %: 88.8%
[1]; [39]
  SkQ1, %: 10.4%
  SkQ1H2, %: 89.1%
[1]; [40]
  SkQ1, %: 5.3%
  SkQ1H2, %: 42.9%
[1]; exposed to air or wet atmosphere or dissolved in water or any protonic solvent
  oxidation to SkQ1: quickly oxides

## COc1cc2c(cc1OC)-c1c(CC(=O)OCCCCCCCC3=CC(=O)C(C)=C(C)C3=O)c3ccc(OC)c(OC)c3c[n+]1CC2 [SkQBP1]
[2]
  Degradation rate, percent per day: 0.08 percent per day
